# PubChem BioAssay (NCI)
#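 All cell lines were grown in 96-well plates and treated with compound for 48 hours. Abbreviation: GI50, concentration required for 50% inhibition of growth. TGI is the concentration that stops growth completely.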
# Experiments:
# Assay in all cases: DTP human tumour cell line panel, 48 h
# HCC-2998 colon = tested on: HCC-2998 colon
# SN12C renal = tested on: SN12C renal
# SR leukemia = tested on: SR leukemia
# SF-295 CNS = tested on: SF-295 CNS
# NCI-H23 lung = tested on: NCI-H23 lung
# EKVX NSCLC = tested on: EKVX NSCLC
# KM12 colon = tested on: KM12 colon
# SF-539 CNS = tested on: SF-539 CNS
# OVCAR-5 ovarian = tested on: OVCAR-5 ovarian
SMILES,TGI (HCC-2998 colon) [µM],TGI (SN12C renal) [µM],TGI (SR leukemia) [µM],TGI (SF-295 CNS) [µM],TGI (NCI-H23 lung) [µM],TGI (EKVX NSCLC) [µM],TGI (KM12 colon) [µM],TGI (SF-539 CNS) [µM],TGI (OVCAR-5 ovarian) [µM],GI50 (HCC-2998 colon) [µM],GI50 (SN12C renal) [µM],GI50 (SR leukemia) [µM],GI50 (SF-295 CNS) [µM],GI50 (NCI-H23 lung) [µM],GI50 (OVCAR-5 ovarian) [µM],GI50 (EKVX NSCLC) [µM],GI50 (KM12 colon) [µM],GI50 (SF-539 CNS) [µM]
C/C(=N\Nc1n[nH]c(=S)n1N)c1c(O)cc(C)oc1=O,> 100,> 100,> 100,> 100,> 100,> 100,> 100,> 100,,,,,,,,,,
C=C1C(=O)OC2(C)CCC1CC1OC1(C)CCC=C(C)CCC2O (stereo unspecified),> 100,> 100,,> 100,> 100,> 100,> 100,> 100,> 100,,,,,,,,,
Cn1cccc1-c1cc(-c2ccccc2)nc(N)c1C#N,> 100,> 100,> 100,> 100,> 100,> 100,> 100,> 100,> 100,> 100,> 76.8,40.8,> 86.3,> 100,> 100,98.1,> 100,> 58.3
CC(=O)/C(=C/N1CCN(C(=O)c2ccco2)C1=S)C(=O)c1ccccc1,,15.2,13.4,> 50,,21.3,> 50,3.56,,,7.65,2.71,19.3,,,7.9,8.4,1.09
CC1=C(SCCC(=O)OC(C[Se]C2=C(C)C(=O)c3ccccc3C2=O)C(=O)NC(C)(C)C)C(=O)c2ccccc2C1=O (stereo unspecified),2.96,2.99,,1.21,2.69,4.48,2.18,2.75,3.08,1.59,1.47,,0.315,1.13,1.69,1.58,0.86,1.44
CCOc1ccccc1N=Cc1c2ccccc2cc2ccccc12,44.3,61.5,61.7,> 100,45.9,52.3,49.3,> 71.4,68.9,,,,,,,,,
COc1ccc2c(c1)[nH]c1c3ccc(OC)cc3oc(=O)c21,> 100,> 100,,> 100,> 100,> 100,> 100,> 100,> 100,,,,,,,,,
NC1=C(O)C(=O)C(c2c[nH]c3ccc(OCc4ccccc4)cc23)O1 (stereo unspecified),> 76.3,> 100,> 100,> 100,> 100,> 100,> 100,> 100,> 100,,,,,,,,,
CCCCCCCCc1cc(O)ccc1O,34.4,27.4,50.8,49,42,61.1,51.6,28.8,42.8,18.4,14.3,15,20.7,17.3,19.9,18.1,21.4,15.4
